# Measured values published in patent publication US8541365B2, “Dendrimeric compounds comprising amino acids, hyperbranched core compound, process for preparation of dendrimeric compounds comprising amino acids and hyperbranched core compound, and use thereof” (Instytut Chemii Organicznej, Polska Akademia Nauk, priority 2008, dated 2013).
# Like-named read-outs stand apart in the source and are kept apart here.
# How the values were obtained:
# [1] = tested on: human melanoma cells (MEW 155); conditions: MEW 155 cells, 3 days culture
# Procedure: Human melanoma cells (MEW 155) received from Institute of Oncology were inoculated on Petri dishes (Ø3 cm, Nunc) to the number of about 75 000, suspended in 3 ml of Eagle medium+10% FBS+antibiotics. Immediately after the inoculation, solutions of tested substances were added to the cells (a substance +20 ml PBS) at 0.5 ml per dish. After culturing for 3 days, numbers of cells (all, dead and alive) at each dish were determined with NucleoCounter apparatus (Chemometec).
# E. coli ATTC 25922 = format: cell-based, Escherichia coli
# Procedure: (§1) Titration plates with a, b, d strains were incubated for 18 h at 35° C. under aerobic conditions, and the c strain was incubated for 18 h at 33° C. under aerobic conditions.
# d) Escherichia coli ATCC 25922
# S. aureus ATTC 43300 = format: cell-based, Staphylococus aureus subsp. aureus
# Procedure: as §1
# c) Staphylococus aureus subsp. aureus ATCC 43300,
# S. aureus ATCC 25923 = format: cell-based, Staphylococus aureus subsp. aureus
# Procedure: as §1
# b) Staphylococus aureus subsp. aureus ATCC 25923,
# P. aeruginosa ATTC 27853 = format: cell-based, Pseudomonas aeruginosa
# Procedure: as §1
# a) Pseudomonas aeruginosa ATCC 27853,
# [2] = E. coli ATTC 25922, microdilution in CAMHB, 18 h at 35° C.
# [3] = S. aureus ATTC 43300, microdilution in CAMHB, 18 h at 33° C.
# [4] = S. aureus ATCC 25923, microdilution in CAMHB, 18 h at 35° C.
# [5] = P. aeruginosa ATTC 27853, microdilution in CAMHB, 18 h at 35° C.
compound,measurement,setting,value
N[C@@H](CCCCNC(=O)OCc1ccccc1Cl)C(=O)NCCNC(=O)CCN(CCC[C@@H](C(=O)NCCc1c[nH]cn1)N(CCC(=O)NCCNC(=O)[C@@H](N)CCCCNC(=O)OCc1ccccc1Cl)CCC(=O)NCCNC(=O)[C@@H](N)CCCCNC(=O)OCc1ccccc1Cl)CCC(=O)NCCNC(=O)[C@@H](N)CCCCNC(=O)OCc1ccccc1Cl [Compound 108],Live cells (%),[1]; concentration 42.1 μMol dm^−3,94.9%
N[C@@H](CCCCNC(=O)OCc1ccccc1)C(=O)NCCNC(=O)CCN(CCCC[C@@H](C(=O)NCCc1c[nH]c2ccccc12)N(CCC(=O)NCCNC(=O)[C@@H](N)CCCCNC(=O)OCc1ccccc1)CCC(=O)NCCNC(=O)[C@@H](N)CCCCNC(=O)OCc1ccccc1)CCC(=O)NCCNC(=O)[C@@H](N)CCCCNC(=O)OCc1ccccc1 [Compound 103],Minimal inhibitory concentration (MIC),E. coli ATTC 25922; [2],111 μM/L
same,Minimal inhibitory concentration (MIC),S. aureus ATTC 43300; [3],74 μM/L
same,Minimal inhibitory concentration (MIC),S. aureus ATCC 25923; [4],12.9 μM/L
same,Minimal inhibitory concentration (MIC),P. aeruginosa ATTC 27853; [5],149 μM/L
same,Live cells (%),[1]; concentration 15.0 μMol dm^−3,96.5%
NCCCC[C@H](NC(=O)OCc1ccccc1Cl)C(=O)NCCNC(=O)CCN(CCCC[C@@H](C(=O)NCCc1c[nH]c2ccccc12)N(CCC(=O)NCCNC(=O)[C@H](CCCCN)NC(=O)OCc1ccccc1Cl)CCC(=O)NCCNC(=O)[C@H](CCCCN)NC(=O)OCc1ccccc1Cl)CCC(=O)NCCNC(=O)[C@H](CCCCN)NC(=O)OCc1ccccc1Cl [Compound 100],Minimal inhibitory concentration (MIC),E. coli ATTC 25922; [2],3.71 μM/L
same,Minimal inhibitory concentration (MIC),S. aureus ATTC 43300; [3],5.81 μM/L
same,Minimal inhibitory concentration (MIC),S. aureus ATCC 25923; [4],0.93 μM/L
same,Minimal inhibitory concentration (MIC),P. aeruginosa ATTC 27853; [5],41 μM/L
same,Live cells (%),[1]; concentration 25.7 μMol dm^−3,0%
NCCCC[C@H](NC(=O)OCc1ccccc1)C(=O)NCCNC(=O)CCN(CCCC[C@@H](C(=O)NCCc1c[nH]c2ccccc12)N(CCC(=O)NCCNC(=O)[C@H](CCCCN)NC(=O)OCc1ccccc1)CCC(=O)NCCNC(=O)[C@H](CCCCN)NC(=O)OCc1ccccc1)CCC(=O)NCCNC(=O)[C@H](CCCCN)NC(=O)OCc1ccccc1 [Compound 102],Minimal inhibitory concentration (MIC),"E. coli ATTC 25922; ATTC 25922, 18 h",149 μM/L
same,Minimal inhibitory concentration (MIC),"S. aureus ATTC 43300; ATTC 43300, 18 h",149 μM/L
same,Minimal inhibitory concentration (MIC),"S. aureus ATCC 25923; ATCC 25923, 18 h",17.3 μM/L
same,Minimal inhibitory concentration (MIC),"P. aeruginosa ATTC 27853; ATTC 27853, 18 h",149 μM/L
same,Live cells (%),[1]; concentration 13.6 μMol dm^−3,98.5%
NCCCC[C@H](NC(=O)OCc1ccccc1Cl)C(=O)NCCNC(=O)CCN(CCC(=O)NCCNC(=O)[C@H](CCCCN)NC(=O)OCc1ccccc1Cl)CC[C@@H](C(=O)NCCc1c[nH]c2ccccc12)N(CCC(=O)NCCNC(=O)[C@H](CCCCN)NC(=O)OCc1ccccc1Cl)CCC(=O)NCCNC(=O)[C@H](CCCCN)NC(=O)OCc1ccccc1Cl [Compound 94],Minimal inhibitory concentration (MIC),E. coli ATTC 25922; [2],12.2 μM/L
same,Minimal inhibitory concentration (MIC),S. aureus ATTC 43300; [3],10.12 μM/L
same,Minimal inhibitory concentration (MIC),S. aureus ATCC 25923; [4],0.94 μM/L
same,Minimal inhibitory concentration (MIC),P. aeruginosa ATTC 27853; [5],70 μM/L
same,Live cells (%),[1]; concentration 12.13 μMol dm^−3,88.4%
N[C@@H](CCCCNC(=O)OCc1ccccc1Cl)C(=O)NCCNC(=O)CCN(CCC(=O)NCCNC(=O)[C@@H](N)CCCCNC(=O)OCc1ccccc1Cl)C[C@@H](C(=O)NCCc1c[nH]c2ccccc12)N(CCC(=O)NCCNC(=O)[C@@H](N)CCCCNC(=O)OCc1ccccc1Cl)CCC(=O)NCCNC(=O)[C@@H](N)CCCCNC(=O)OCc1ccccc1Cl [Compound 99],Minimal inhibitory concentration (MIC),E. coli ATTC 25922; [2],7.0 μM/L
same,Minimal inhibitory concentration (MIC),S. aureus ATTC 43300; [3],3.32 μM/L
same,Minimal inhibitory concentration (MIC),S. aureus ATCC 25923; [4],0.6 μM/L
same,Minimal inhibitory concentration (MIC),P. aeruginosa ATTC 27853; [5],52 μM/L
N[C@@H](CCCCNC(=O)OCc1ccccc1Cl)C(=O)NCCNC(=O)CCN(CCC[C@@H](C(=O)NCCc1c[nH]c2ccccc12)N(CCC(=O)NCCNC(=O)[C@@H](N)CCCCNC(=O)OCc1ccccc1Cl)CCC(=O)NCCNC(=O)[C@@H](N)CCCCNC(=O)OCc1ccccc1Cl)CCC(=O)NCCNC(=O)[C@@H](N)CCCCNC(=O)OCc1ccccc1Cl [Compound 97],Minimal inhibitory concentration (MIC),E. coli ATTC 25922; [2],7.9 μM/L
same,Minimal inhibitory concentration (MIC),S. aureus ATTC 43300; [3],20.4 μM/L
same,Minimal inhibitory concentration (MIC),S. aureus ATCC 25923; [4],0.93 μM/L
same,Minimal inhibitory concentration (MIC),P. aeruginosa ATTC 27853; [5],60 μM/L
N[C@@H](CCCCNC(=O)OCc1ccccc1Cl)C(=O)NCCNC(=O)CCN(CCCC[C@@H](C(=O)NCCc1c[nH]c2ccccc12)N(CCC(=O)NCCNC(=O)[C@@H](N)CCCCNC(=O)OCc1ccccc1Cl)CCC(=O)NCCNC(=O)[C@@H](N)CCCCNC(=O)OCc1ccccc1Cl)CCC(=O)NCCNC(=O)[C@@H](N)CCCCNC(=O)OCc1ccccc1Cl [Compound 101],Minimal inhibitory concentration (MIC),E. coli ATTC 25922; [2],12.0 μM/L
same,Minimal inhibitory concentration (MIC),S. aureus ATTC 43300; [3],10.0 μM/L
same,Minimal inhibitory concentration (MIC),S. aureus ATCC 25923; [4],0.93 μM/L
same,Minimal inhibitory concentration (MIC),P. aeruginosa ATTC 27853; [5],51 μM/L
NCCCC[C@H](NC(=O)OCc1ccccc1Br)C(=O)NCCNC(=O)CCN(CCCC[C@@H](C(=O)NCCc1c[nH]c2ccccc12)N(CCC(=O)NCCNC(=O)[C@H](CCCCN)NC(=O)OCc1ccccc1Br)CCC(=O)NCCNC(=O)[C@H](CCCCN)NC(=O)OCc1ccccc1Br)CCC(=O)NCCNC(=O)[C@H](CCCCN)NC(=O)OCc1ccccc1Br [Compound 104],Minimal inhibitory concentration (MIC),E. coli ATTC 25922; [2],30 μM/L
same,Minimal inhibitory concentration (MIC),S. aureus ATTC 43300; [3],30 μM/L
same,Minimal inhibitory concentration (MIC),S. aureus ATCC 25923; [4],3.43 μM/L
same,Minimal inhibitory concentration (MIC),P. aeruginosa ATTC 27853; [5],64 μM/L
same,Live cells (%),[1]; concentration 21.4 μMol dm^−3,73.6%
NCCCC[C@H](NC(=O)OCc1ccccc1Cl)C(=O)NCCNC(=O)CCN(CCC[C@@H](C(=O)NCCc1c[nH]cn1)N(CCC(=O)NCCNC(=O)[C@H](CCCCN)NC(=O)OCc1ccccc1Cl)CCC(=O)NCCNC(=O)[C@H](CCCCN)NC(=O)OCc1ccccc1Cl)CCC(=O)NCCNC(=O)[C@H](CCCCN)NC(=O)OCc1ccccc1Cl [Compound 107],Live cells (%),[1]; concentration 47.1 μMol dm^−3,91.1%
NCCC[C@H](NC(=O)OCc1ccccc1Cl)C(=O)NCCNC(=O)CCN(CCCC[C@@H](C(=O)NCCc1c[nH]c2ccccc12)N(CCC(=O)NCCNC(=O)[C@H](CCCN)NC(=O)OCc1ccccc1Cl)CCC(=O)NCCNC(=O)[C@H](CCCN)NC(=O)OCc1ccccc1Cl)CCC(=O)NCCNC(=O)[C@H](CCCN)NC(=O)OCc1ccccc1Cl [Compound 106],Minimal inhibitory concentration (MIC),E. coli ATTC 25922; [2],16.7 μM/L
same,Minimal inhibitory concentration (MIC),S. aureus ATTC 43300; [3],25 μM/L
same,Minimal inhibitory concentration (MIC),S. aureus ATCC 25923; [4],3.82 μM/L
same,Minimal inhibitory concentration (MIC),P. aeruginosa ATTC 27853; [5],71 μM/L
same,Live cells (%),[1]; concentration 10.0 μMol dm^−3,87.7%
NCCCC[C@H](NC(=O)OCc1ccccc1Cl)C(=O)NCCNC(=O)CCN(CCC[C@@H](C(=O)NCCc1c[nH]c2ccccc12)N(CCC(=O)NCCNC(=O)[C@H](CCCCN)NC(=O)OCc1ccccc1Cl)CCC(=O)NCCNC(=O)[C@H](CCCCN)NC(=O)OCc1ccccc1Cl)CCC(=O)NCCNC(=O)[C@H](CCCCN)NC(=O)OCc1ccccc1Cl [Compound 96],Minimal inhibitory concentration (MIC),E. coli ATTC 25922; [2],12.1 μM/L
same,Minimal inhibitory concentration (MIC),S. aureus ATTC 43300; [3],12.1 μM/L
same,Minimal inhibitory concentration (MIC),S. aureus ATCC 25923; [4],1.87 μM/L
same,Minimal inhibitory concentration (MIC),P. aeruginosa ATTC 27853; [5],51 μM/L
same,Live cells (%),[1]; concentration 33.6 μMol dm^−3,11.6%
N[C@@H](CCCCNC(=O)OCc1ccccc1Cl)C(=O)NCCNC(=O)CCN(CCC(=O)NCCNC(=O)[C@@H](N)CCCCNC(=O)OCc1ccccc1Cl)CC[C@@H](C(=O)NCCc1c[nH]c2ccccc12)N(CCC(=O)NCCNC(=O)[C@@H](N)CCCCNC(=O)OCc1ccccc1Cl)CCC(=O)NCCNC(=O)[C@@H](N)CCCCNC(=O)OCc1ccccc1Cl [Compound 95],Minimal inhibitory concentration (MIC),E. coli ATTC 25922; [2],32 μM/L
same,Minimal inhibitory concentration (MIC),S. aureus ATTC 43300; [3],32 μM/L
same,Minimal inhibitory concentration (MIC),S. aureus ATCC 25923; [4],1.88 μM/L
same,Minimal inhibitory concentration (MIC),P. aeruginosa ATTC 27853; [5],51 μM/L
NCCCC[C@H](NC(=O)OCc1ccccc1Cl)C(=O)NCCNC(=O)CCN(CCC(=O)NCCNC(=O)[C@H](CCCCN)NC(=O)OCc1ccccc1Cl)C[C@@H](C(=O)NCCc1c[nH]c2ccccc12)N(CCC(=O)NCCNC(=O)[C@H](CCCCN)NC(=O)OCc1ccccc1Cl)CCC(=O)NCCNC(=O)[C@H](CCCCN)NC(=O)OCc1ccccc1Cl [Compound 98],Minimal inhibitory concentration (MIC),E. coli ATTC 25922; [2],12.3 μM/L
same,Minimal inhibitory concentration (MIC),S. aureus ATTC 43300; [3],8.06 μM/L
same,Minimal inhibitory concentration (MIC),S. aureus ATCC 25923; [4],0.95 μM/L
same,Minimal inhibitory concentration (MIC),P. aeruginosa ATTC 27853; [5],52 μM/L
same,Live cells (%),[1]; concentration 4.3 μMol dm^−3,97.7%
N[C@@H](CCCCNC(=O)OCc1ccccc1Cl)C(=O)NCCNC(=O)CCN(CCCC(C(=O)Nc1cccnc1)N(CCC(=O)NCCNC(=O)[C@@H](N)CCCCNC(=O)OCc1ccccc1Cl)CCC(=O)NCCNC(=O)[C@@H](N)CCCCNC(=O)OCc1ccccc1Cl)CCC(=O)NCCNC(=O)[C@@H](N)CCCCNC(=O)OCc1ccccc1Cl (stereo partly drawn) [Compound 92],Live cells (%),[1]; concentration 7.14 μMol dm^−3,97.7%
NCCCC[C@H](NC(=O)OCc1ccccc1Cl)C(=O)NCCNC(=O)CCN(CCCC(C(=O)Nc1cccnc1)N(CCC(=O)NCCNC(=O)[C@H](CCCCN)NC(=O)OCc1ccccc1Cl)CCC(=O)NCCNC(=O)[C@H](CCCCN)NC(=O)OCc1ccccc1Cl)CCC(=O)NCCNC(=O)[C@H](CCCCN)NC(=O)OCc1ccccc1Cl (stereo partly drawn) [Compound 93],Live cells (%),[1]; concentration 13.65 μMol dm^−3,95.8%
